Patent US9249466B2, “Methods and compositions for treating cancer” (Agency for Science, Technology and Research, priority 2010, dated 2016)
Entries after “also recorded” stand apart in the source; their conditions may differ.

Assays:
Type in all cases: cell-based, human
HEK-TERV cells = assay: Apoptotic assay in HEK-TERV cells; conditions: 10 nM for 24 h; PDK1-transformed vs control or PI3K (E545)-transformed cells
DLD1 and SW480 cells [1] = assay: Cell viability of DLD1 and SW480 cells under drug combinations; conditions: SW480 and DLD1 cells, BI 2536 10 nM plus BEZ 235 10 nM
Protocol: Cell viability was measured using CellTiter-Glo™ Luminescent Cell Viability Assay (Promega).
In brief, 1000 cells were seeded in 96-well plate and the cell number was measured following manufacturer's instruction. To detect the senescence in DLD1-tet on cells, cells were treated with Dox for 48 hr and SA-β-Gal staining was performed according to the protocol of Senescence Detection kit (BioVision). Cell cycle analysis was done by DNA content quantification.

SW480 and DLD1 cells = assay: Apoptotic assay in SW480 and DLD1 cells; conditions: BI2536 10 nM plus BEZ 235 100 nM, 48 hr
DLD1 and SW480 cells [2] = assay: Monolayer dense foci / colony formation of DLD1 and SW480 cells; conditions: monolayer colony formation, 12 days
Protocol: For DLD1 and HCT116 inducible cells foci formation assay, 1×10^4 cells were seeded on 6-well plate with or without treatment with Dox or rapamcycin. […]

HEK-PDK1 cells = assay: Tumor sphere formation in HEK-PDK1 cells; conditions: 5 nM BI2536 for 7 days

CC[C@@H]1C(=O)N(C)c2cnc(Nc3ccc(C(=O)NC4CCN(C)CC4)cc3OC)nc2N1C1CCCC1 [BI2536]
apoptosis (HEK-TERV cells): selectively induced apoptosis in PDK1-transformed cells | growth inhibition in combination with BEZ235 (DLD1 and SW480 cells [1]): strong synergistic growth inhibition | apoptosis in combination with BEZ235 (SW480 and DLD1 cells): strong synergistic | long term colony formation in combination with BEZ235 (DLD1 and SW480 cells [2]): strong synergistic | tumor sphere formation (HEK-PDK1 cells): blocks the tumor sphere formation; also recorded: abolished the PDK1-driven tumorspheres formation
